Laboratory results from PubChem BioAssay AID2060504 (Molecular Pharmacology Branch, DTP, NCI, 2025).

Tested on: 636577-100-R-J1-PDC complex spheroid viability
Test: Anticancer human tumor 636577-100-R-J1-PDC patient-derived endometrial adenocarcinoma cell line growth inhibition [GQUAD]
Settings: for IC50: curve of first compound; for viability, T/C: stronger effect = lower value; active = viability on the fitted dose curve at most 10% of control; inactive = the rest
In short: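 Tumor cells were grown as complex spheroids with HUVEC endothelial cells and mesenchymal stem cells as stroma. G-quadruplex stabilizers were combined with targeted agents over half-log dilutions from near the clinical Cmax, or from 10 microM.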

[1] = second compound 0.0316 µM, first compound 0.0316 µM
[2] = second compound 0.0316 µM, first compound 0.1 µM
[3] = second compound 0.0316 µM, first compound 0.316 µM
[4] = second compound 0.0316 µM, first compound 1 µM
[5] = second compound 0.0316 µM, first compound 3.16 µM
[6] = second compound 0.0316 µM, first compound 10 µM
[7] = second compound 0.1 µM, first compound 0.0316 µM
[8] = second compound 0.1 µM, first compound 0.1 µM
[9] = second compound 0.1 µM, first compound 0.316 µM
[10] = second compound 0.1 µM, first compound 1 µM
[11] = second compound 0.1 µM, first compound 3.16 µM
[12] = second compound 0.1 µM, first compound 10 µM
[13] = second compound 0.316 µM, first compound 0.0316 µM
[14] = second compound 0.316 µM, first compound 0.1 µM
[15] = second compound 0.316 µM, first compound 0.316 µM
[16] = second compound 0.316 µM, first compound 1 µM
[17] = second compound 0.316 µM, first compound 3.16 µM
[18] = second compound 0.316 µM, first compound 10 µM
[19] = second compound 1 µM, first compound 0.0316 µM
[20] = second compound 1 µM, first compound 0.1 µM
[21] = second compound 1 µM, first compound 0.316 µM
[22] = second compound 1 µM, first compound 1 µM
[23] = second compound 1 µM, first compound 3.16 µM
[24] = second compound 1 µM, first compound 10 µM
[25] = second compound 3.16 µM, first compound 0.0316 µM
[26] = second compound 3.16 µM, first compound 0.1 µM
[27] = second compound 3.16 µM, first compound 0.316 µM
[28] = second compound 3.16 µM, first compound 1 µM
[29] = second compound 3.16 µM, first compound 3.16 µM
[30] = second compound 3.16 µM, first compound 10 µM
[31] = second compound 10 µM, first compound 0.0316 µM
[32] = second compound 10 µM, first compound 0.1 µM
[33] = second compound 10 µM, first compound 0.316 µM
[34] = second compound 10 µM, first compound 1 µM
[35] = second compound 10 µM, first compound 3.16 µM
[36] = second compound 10 µM, first compound 10 µM
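Note: viability read after seven days of drug exposure.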
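Throughout, for viability, T/C: luminescence signal used as a proxy for viable cells; 100% = DMSO vehicle control wells.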

Cc1cccc(N(C)C(=O)C2C(O)CCN2c2nc(C)cc(C(F)(F)F)c2C#N)c1 (centres undefined) + CN(C)c1ccc(Nc2c3ccc(NC(=O)CCN4CCCC4)cc3nc3cc(NC(=O)CCN4CCCC4)ccc23)cc1
inactive: viability, T/C [1] 78% | viability, T/C [2] 78.9% | viability, T/C [3] 97.2% | viability, T/C [4] 102% | viability, T/C [5] 92.1% | viability, T/C [6] 86% | viability, T/C [7] 105% | viability, T/C [8] 73.6% | viability, T/C [9] 89.7% | viability, T/C [10] 92.8% | viability, T/C [11] 92.8% | viability, T/C [12] 82.9% | viability, T/C [13] 80.6% | viability, T/C [14] 79.7% | viability, T/C [15] 91.3% | viability, T/C [16] 88.5% | viability, T/C [17] 96.9% | viability, T/C [18] 78.3% | viability, T/C [19] 78.1% | viability, T/C [20] 87.2% | viability, T/C [21] 78.6% | viability, T/C [22] 71.5% | viability, T/C [23] 76.4% | viability, T/C [24] 57.4% | viability, T/C [25] 34.9% | viability, T/C [26] 47.4% | viability, T/C [27] 45.8% | viability, T/C [28] 31.6% | viability, T/C [29] 30.1% | viability, T/C [30] 27.2%
< 0.0316 µM: IC50 (second compound 3.16 µM) | IC50 (second compound 10 µM)
> 10 µM: IC50 (second compound 0.0316 µM) | IC50 (second compound 0.1 µM) | IC50 (second compound 0.316 µM) | IC50 (second compound 1 µM)
active: viability, T/C [31] 7.75% | viability, T/C [32] 6.99% | viability, T/C [33] 4.7% | viability, T/C [34] 4.67% | viability, T/C [35] 2.93% | viability, T/C [36] 0.73%

CC1COCCN1c1cc(C2(O)CC3CCC(C2)O3)c2cnn(-c3ccn[nH]3)c2n1 (centres undefined) + Cc1[nH]c2ccc(F)cc2c1-c1nc2c3cccnc3c3ncccc3c2[nH]1
inactive: viability, T/C [1] 82.9% | viability, T/C [2] 33.8% | viability, T/C [3] 18.5% | viability, T/C [7] 71.2% | viability, T/C [8] 35.3% | viability, T/C [9] 18.7% | viability, T/C [13] 67.1% | viability, T/C [14] 36.1% | viability, T/C [15] 15.7% | viability, T/C [19] 32% | viability, T/C [20] 26% | viability, T/C [21] 14.9% | viability, T/C [25] 17.9% | viability, T/C [26] 14.8% | viability, T/C [27] 10.7% | viability, T/C [31] 24.6% | viability, T/C [32] 21.4% | viability, T/C [33] 15.2%
0.0706 µM: IC50 (second compound 0.0316 µM)
active: viability, T/C [4] 7.11% | viability, T/C [5] 3.67% | viability, T/C [6] 1.06% | viability, T/C [10] 8.6% | viability, T/C [11] 3.75% | viability, T/C [12] 1.19% | viability, T/C [16] 8.55% | viability, T/C [17] 4.01% | viability, T/C [18] 1.3% | viability, T/C [22] 8.44% | viability, T/C [23] 3.77% | viability, T/C [24] 1.61% | viability, T/C [28] 7.29% | viability, T/C [29] 3.77% | viability, T/C [30] 1.49% | viability, T/C [34] 8.61% | viability, T/C [35] 4.18% | viability, T/C [36] 1.5%
0.0592 µM: IC50 (second compound 0.316 µM)
< 0.0316 µM: IC50 (second compound 1 µM) | IC50 (second compound 3.16 µM) | IC50 (second compound 10 µM)
0.0633 µM: IC50 (second compound 0.1 µM)
